Source: ChEMBL document CHEMBL1157539, “Thousands of chemical starting points for antimalarial lead identification” (Nature, 2010)

tested on: Plasmodium falciparum; test: GSK_TCMDC: Inhibition of Plasmodium falciparum 3D7 in whole erythrocytes, using parasite LDH activity as an index of growth.; format: functional, organism-based; conditions: not given

Row | SMILES | XC50 [nM]
1 | CCc1nc(N)nc(N)c1-c1ccc(Cl)cc1 [PYRIMETHAMINE] | 31.8

same assay, conditions: Plasmodium falciparum, 3D7

Row | SMILES | XC50 [nM]
2 | COc1ccc(C=NN=c2c3ccccc3[nH]c3ccccc23)c2ccccc12 | 1130
3 | CCOC(=O)c1ccc(Nc2cc(Nc3ccc(C(=O)OCC)cc3)nc(C)n2)cc1 | 907
4 | Nc1ccc(-c2nc3c(ccc4ccccc43)[nH]2)cc1 | 941
5 | CC(C)N(Cc1ccc(-c2ccc(C(F)(F)F)cc2)cc1)C(=O)Cn1c(CCc2cccc(F)c2F)cc(=O)c2ccc(CCCN3CCCCC3)cc21 | 736
6 | CCN(CC)CCN(Cc1ccc(-c2ccc(C(F)(F)F)cc2)cc1)C(=O)Cn1c(CCc2cccc(C#N)c2)nc(=O)c2ccccc21 | 768
7 | Cc1ccc(CN2CCCN(Cc3cccc(C(=O)Nc4ccc(C(C)(C)C)cc4)c3)CC2)s1 | 1130
8 | Cc1nc(N)nc(N)c1CCCOc1ccccc1Br | 424
9 | O=C(Nc1cccc(-c2ccc(-c3nc4ccccc4[nH]3)s2)c1)c1ccncc1 | 778
10 | CN1CCCC1CCNc1ncc2c(-c3ccc(NC(=O)Nc4cc(C(F)(F)F)ccc4F)c(F)c3)nn(C)c2n1 (configuration not stated) | 287
11 | CC(C)CCN(Cc1cncn1Cc1cccc(Cl)c1)C(=O)c1cncc(-c2ccccc2)c1 | 762
12 | COc1ccc2nc(SC(C)C(=O)c3c[nH]c4ccccc34)[nH]c2c1 (configuration not stated) | 1280
13 | Cc1cc2ccccc2n1CC(=O)N1CC(C(=O)N2CCCCC2)Oc2ccccc21 (configuration not stated) | 899
14 | O=C(/C=C/c1ccc(Cl)c(Cl)c1)NCCCCCN1CCC(NS(=O)(=O)c2cc(Cl)cc(Cl)c2)CC1 | 1240
15 | CC(C)(C)c1ccc2[nH]c(-c3ccc(C(=O)NC4CCN(Cc5ccccc5)CC4)s3)nc2c1 | 359
16 | CC(C)NCc1ccc(-c2cccc(-c3nc4ccccc4[nH]3)c2)cc1 | 231
17 | c1cc(-c2ccc(CNCCc3ccncc3)cc2)cc(-c2nc3ccccc3[nH]2)c1 | 139
18 | Cc1cccc2nc(-c3ccc(-c4cccc(NC(=O)c5ccncc5)c4)cc3)[nH]c12 | 839
19 | CCC(C)NC(=O)CN1CN(c2ccccc2)C2(CCN(C(=O)c3ccc(C(C)(C)C)cc3)CC2)C1=O (configuration not stated) | 125
20 | CNC(=O)c1ccc2[nH]cc(C3CCN(CC4CCC(NC(=O)/C=C/c5ccccc5Cl)CC4)CC3)c2c1 (configuration not stated) | 836
21 | CN(CCCCCN1CCC(NC(=O)Nc2ccc(C(F)(F)F)cc2)C1)C(=O)/C=C/c1ccc(Cl)c(Cl)c1 (configuration not stated) | 771
22 | CCOC(=O)c1c(CNc2ccncc2)n(C)c2cc(Br)c(OC(C)=O)cc12 | 370
23 | Fc1ccc2[nH]c(-c3cccc(-c4ccc(CN5CCN(CCN6CCOCC6)CC5)cc4)c3)nc2c1 | 307
24 | Cc1[nH]c(C)c(-c2ccc(Oc3ccc(Cl)cc3)cc2)c(=O)c1C | 385
25 | CC[C@@]1(O)C(=O)OCc2c1cc1n(c2=O)Cc2c-1nc1cc3c(cc1c2CN1CCN(C)CC1)OCCO3 | 446

Row | SMILES | XC50 [nM]
26 | Cc1cc(NCCCN2CCCC2=O)n2c(nc3ccccc32)c1C#N | 858
27 | COc1ccc2[nH]c(/C=C/c3cccc4ccc(C)nc34)nc2c1 | 792
28 | O=S(=O)(NCCN1CCCC1)c1ccc(-c2ccc(CNCc3ccsc3)cc2)s1 | 832
29 | CC(C(=O)N1CCCC1)N1CCN(C(c2ccccc2)c2ccccc2)CC1 (configuration not stated) | 1100
30 | CC(Cc1ccc(NC(=O)c2ccc(CNCCCCc3ccccc3)cc2)cc1)NCCc1cccc(Cl)c1 (configuration not stated) | 334
31 | Cc1cccc(CN2CCC(C(=O)Nc3ccc(-c4nc5ccccc5[nH]4)cc3)CC2)n1 | 919
32 | O=C(NCc1cccc(F)c1)Nc1cccc(-c2cccc(-c3nc4ccccc4[nH]3)c2)c1 | 389
33 | CN(C)CCCn1c(C(=O)OC(c2ccccc2)c2ccccc2)cc2cc(OCc3ccccc3)ccc21 | 201
34 | O=C(NC1CCN(CC2(c3ccccc3F)CCCC2)CC1)c1cc[nH]n1 | 997
35 | COc1cccc(-c2csc(C(=O)NC3CCCCN(Cc4ccc(C(C)(C)C)cc4)C3)c2)c1 (configuration not stated) | 887
36 | CCn1cc(CN2CCCC(C(=O)Nc3ccc(-c4nc5ccccc5[nH]4)cc3)C2)cn1 (configuration not stated) | 927
37 | COc1ccc(-c2cnc(N)c(-c3ccc(O)c(OC)c3)c2)cn1 | 875
38 | Cn1cccc1C(=O)NCC(CCNc1cc(=O)c2ccccc2[nH]1)NCc1cc(Br)cc(Br)c1 (configuration not stated) | 911
39 | Fc1ccc(CNc2ncc(-c3ccsc3)c(-c3nccs3)n2)cc1 | 72.1
40 | O=C(Nc1cc(C(F)(F)F)cc(C(F)(F)F)c1)c1cc(C(F)(F)F)cc(C(F)(F)F)c1 | 872
41 | C=CCOC(=O)N1CCC(CNCc2cccc(-c3ccc(-c4nc5cc(C(F)(F)F)ccc5[nH]4)cc3)c2)C1 (configuration not stated) | 146
42 | COc1cc2c(cc1C(F)(F)F)N(C(=O)Nc1cc(Br)cc(-c3cccnc3)c1)CC2 | 864
43 | C=Cc1c(C2CCN(CCCCNC(=O)c3ccc(-c4ccc(C#N)cc4)cc3)CC2)ccc2c1CCCC2 | 878
44 | CCCC(C(CC1CCC(C)CC1)C(=O)NC(CCCNc1ncccn1)C(=O)Nc1nccs1)N(O)C=O (configuration not stated) | 187
45 | CC(C)Cn1cc(C2CCN(CCN3CCC(CNC(=O)c4ccc(NC(=O)c5ccc(Cl)cc5)cc4)CC3)CC2)c2ccccc21 | 251
46 | O=C(/C=C/c1ccc(Cl)c(Cl)c1)NCC[C@@H]1C[C@H]1CCN1CCC(c2c[nH]c3ccccc23)CC1 | 794
47 | CCCCCCN1CCC(CNCc2cccc([N+](=O)[O-])c2)CC1 | 720
48 | CCOC(=O)c1c[nH]c2c(ccc3ccccc32)c1=O | 157
49 | O=C(Nc1cccc(CN2CCN(C(=O)c3cccc(Cl)c3)CC2)c1)c1cccs1 | 184

Row | SMILES | XC50 [nM]
50 | COc1ccc(Cn2c(Nc3cccc(C(F)(F)F)c3)nc3cc(C(=O)NC4CC4)cnc32)cc1Cl | 727
51 | Cc1cc(-c2cccc(CNCCc3ccc(Cl)cc3)c2)cnc1N | 1100
52 | COc1cc(NC(=O)C(c2ccc(Cl)cc2)C(C)C)cc(OC)c1 (configuration not stated) | 723
53 | Oc1ccc(Cl)cc1CN1CCCC(COC(c2ccc(F)cc2)c2ccc(F)cc2)C1 (configuration not stated) | 677
54 | CN1CCCN(Cc2cccc(-c3ccc(NS(=O)(=O)c4cccc5cccnc45)cc3)c2)CC1 | 957
55 | COc1cc(Cc2cnc(N)nc2N)cc(OCCCCC#N)c1OC | 1040
56 | CC1CC(NCCCNc2cc(=O)c3ccccc3[nH]2)c2c1cc(Cl)c(Cl)c2Cl (configuration not stated) | 837
57 | CCCCCCCCc1c(C)[nH]c(C)c(Cl)c1=O | 229
58 | O=c1cc(NCCCNCc2cccc(I)c2)[nH]c2ccccc12 | 1020
59 | Cc1ccc(Nc2ccnc3cc(-c4nccs4)ccc23)cc1C(O)c1ccccc1 (configuration not stated) | 735
60 | Cc1noc(C)c1-c1ccc2c(Nc3nccc4ccccc34)c(C(N)=O)cnc2c1 | 895
61 | CNc1ccc(CNCc2ccc(-c3ccc(-c4nc5cc(F)ccc5[nH]4)cc3)cc2)cc1 | 210
62 | CC1(C)N=C(N)N=C(N)N1OCCCCON1C(N)=NC(N)=NC1(C)C | 66
63 | COc1ccccc1/C=C/C(=O)N(C)C1CCN(CCCCCNC(=O)/C=C/c2ccc(Cl)c(Cl)c2)C1 (configuration not stated) | 867
64 | Cc1cccc2nc(-c3ccc(-c4ccc(C(=O)NCCc5cn(C)cn5)cc4)s3)[nH]c12 | 960
65 | CN1CCC(O)(c2ccc(Br)cc2)C(C(O)c2ccc(Br)cc2)C1 (configuration not stated) | 731
66 | O=C(/C=C/c1ccc(Cl)cc1)NCCCCCN1CCCC(C(=O)Nc2ccc(Cl)cc2)C1 (configuration not stated) | 1050
67 | N#CCCN1CCN(Cc2ccc(-c3cccc(-c4nc5cc(F)ccc5[nH]4)c3)cc2)CC1 | 972
68 | CCc1cn(CCCOC)c2ccc(C(=O)N[C@@H](Cc3ccccc3)[C@H](O)CNCc3cccc(C(F)(F)F)c3)cc12 | 186
69 | CN1CCC(NCc2ccc(S(=O)(=O)Nc3ccc(Oc4cccc(Cl)c4)cc3)cc2)CC1 | 735
70 | CC(=O)c1cccc(NC(=O)c2ccc(Cl)c(S(=O)(=O)N3CCc4ccccc43)c2)c1 | 1640
71 | CC(C)c1ccc(N2CCN(CCCCNC(=O)c3ccc(NC(=O)c4cc(Cl)cc(Cl)c4)cc3)CC2)cc1 | 156
72 | Cc1noc(C)c1-c1cccc(CNCc2ccc(-c3ccc(-c4nc5cccc(C)c5[nH]4)cc3)cc2)c1 | 239
73 | Cc1noc(C)c1-c1ccc2c(Nc3ccc(C(F)(F)F)cc3)c(C(N)=O)cnc2c1 | 319

Row | SMILES | XC50 [nM]
74 | CCCc1cc(=O)[nH]c(-n2nc(C)cc2NC(=O)CC(c2ccccc2)c2ccccc2)n1 | 618
75 | Cc1cccc(Nc2nccc(Nc3cccc(C(=O)NCCN4CCOCC4)c3)n2)c1 | 1420
76 | CC(CO)(CO)NCc1cc2c3ccccc3c(CNC(C)(CO)CO)cc2c2ccccc12 | 723
77 | O=C(Nc1ccnc2ccccc12)NC1CCN(Cc2ccccc2)CC1 | 988
78 | CN(C(=O)/C=C/c1cc(C(F)(F)F)ccc1F)C1CCN(CCCCCNC(=O)/C=C/c2ccc(Cl)c(Cl)c2)C1 (configuration not stated) | 1090
79 | COc1ccc(C(O)CNC(C)CCc2ccccc2)cc1C(F)(F)F (configuration not stated) | 70.4
80 | Cc1cc(NC(=O)[C@@H](Nc2ccc(C#N)c3ccccc23)C2CCCCC2)ccc1F | 892
81 | CN1CCCc2cc(NC(=O)C=Cc3ccc(-c4ccc(F)cc4F)o3)ccc2C1 | 783
82 | CC(C)C1C(O)=C(c2ccc3ccccc3c2)C(=O)N1Cc1ccsc1 (configuration not stated) | 1070
83 | CNCCN(C)C(=O)Oc1c(Cl)c(C)nc(C)c1-c1ccc(Oc2ccc(OC(F)(F)F)cc2)cc1 | 127
84 | O=C(NC1CCN(CCN2CCC(c3c[nH]c4ccccc34)CC2)CC1)c1ccc(-c2ccc(C(F)(F)F)cc2)cc1 | 205
85 | CCC(CC)(Cc1ccccc1)NC(=O)[C@H](CC(C)C)Nc1ccc(C#N)c2ccccc12 | 913
86 | C[C@@H](CNc1ccnc(Nc2ccc3[nH]c(=O)[nH]c3c2)n1)c1ccccc1 | 1100
87 | CCOc1ccc(-c2nc(NC(=O)Cc3cccc(OC)c3)sc2C)cc1 | 730
88 | Cc1ccccc1C1CCN(C2CCC(NC(=O)c3ccc(-c4cccc(C(F)(F)F)c4)o3)CC2)CC1 (configuration not stated) | 346
89 | O=C(Nc1cccc(-c2ccc(-c3nc4ccccc4[nH]3)cc2)c1)c1cccnc1 | 1040
90 | CCc1nc(N)nc(N)c1-c1ccc(Cl)cc1 [PYRIMETHAMINE] | 59.5
91 | CCN(CCCN1CCCCC1)c1cc(C)nc(Nc2cc(C)ccc2C)n1 | 664
92 | COc1ccc(C2(CNCC(O)c3cccc([N+](=O)[O-])c3)CCCC2)cc1OC (configuration not stated) | 891
93 | COc1cc(C)ccc1N1CCN(CCCCNC(=O)c2ccc(NC(=O)c3ccc(Cl)cc3)cc2)CC1 | 700
94 | Cc1cc(NCCC(=O)NCCOc2ccccc2)nc(NCCc2ccc(F)cc2)n1 | 940
95 | Cc1ccc(NC(=O)Nc2ccc(I)c(OCCN(C)C)c2)cc1Cl | 564
96 | Cc1n[nH]c2ccc(-c3cc(OC[C@@H](N)Cc4ccccc4)cnc3-c3ccc(OCc4cccc(F)c4)cc3)cc12 | 730
97 | COc1ccc2nccc([C@@H](O)CN3CCC(NCC(=O)Nc4cc(F)cc(F)c4)CC3)c2n1 | 912
